pKd, pKi: −log10 of the molar value.

In assay [1] the target is T1, acetylcholine binding protein (Ls-AChBP) (Lymnaea stagnalis, UniProt P58154). As to the kind of experiment: radioligand binding, HEK-293 cell homogenate. More on the design: Ls-AChBP linked to a 5HT3 receptor ion channel (Ls-AChBP-5HT3 receptor chimera). Particulars: cited from earlier work.
The target of assay [2] is T1, acetylcholine binding protein (Ls-AChBP). The experiment in a line: biochemical.

T1 sequence (P58154 20-229): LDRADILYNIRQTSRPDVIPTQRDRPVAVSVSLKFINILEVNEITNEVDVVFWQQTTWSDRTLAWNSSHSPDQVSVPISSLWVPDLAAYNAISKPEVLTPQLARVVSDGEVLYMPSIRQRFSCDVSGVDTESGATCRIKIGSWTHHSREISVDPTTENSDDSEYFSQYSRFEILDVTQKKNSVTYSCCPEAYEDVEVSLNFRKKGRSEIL

With `Clc1ccc(C2CC3CCC2N3)cn1` (centres unmarked) [[3H]-epibatidine], the pKd in assay [1] was 10.01.

Turning to `CC(=O)OCC[N+](C)(C)C` [acetylcholine], in assay [2], the negative-log Ki (pKi) is 5.82.

These data come from PMC3956608 (PLoS ONE, 2014).
